Source: US5571816A, “Pyrimidines” (Hoechst Aktiengesellschaft, priority 1992, dated 1996)
Where a name gives a salt, the structure may show the parent alone. Read-outs that look alike come from different tables or passages of the source.

Legend:
[1] = Solubility in water of salts (and free bases); type: physicochemical; details: Table 2, salts of compounds I, temp. by No. [°C]: 1 25.5, 2 23.0, 3 22.4, 4 22.4, 5 22.0, 6 25.0, 7 25.5, 8 25.5, 9 25.5, 10 23.5, 11 23.5, 12 25.0, 13 24.0, 14 23.0, 15 22.0, 16 24.5, 17 22.5, 18 22.0; for solubility: water, read-out: Solubility in water, Concentration in % by wt.
LDL receptor mRNA [2] = assay: Stimulation of LDL receptor mRNA expression in HepG2 cells (Northern blot); type: cell-based; details: Homo sapiens; HepG2, 2 × 10^-6 M, 16 h; control = 100%; ratio to β-actin mRNA
Description: 1a. In the human hepatocytoma cell line HepG2, which is recognized everywhere as model, the LDL receptor mRNA levels are increased by the compounds of the formula I (Table I).
(§1) The mRNA was prepared by the method described by Chomczynski, P. and Sacchi, N., in Anal. Biochem. 162, 156-159 (1987). In the case of organs (such as, for example, liver), the deep-frozen tissue was previously homogenized on dry ice in a mortar, and the mRNA was further concentrated by means of oligo dT by standard methods (cf. Sambrook, J., Fritsch, E. F. and Maniatis, T., Molecular Cloning, second edition, Cold Spring Harbor (1989); this collection of methods also includes descriptions of all the other relevant standard processes of molecular biology used here). 5 to […] of the dissolved mRNA obtained in this way were denatured by standard processes and fractionated on 1% horizontal agarose gels. The mRNA was transferred by capillary blotting to Hybond N membranes (Amersham). Used as specific hybridization probe was a partial LDL receptor cDNA clone and as internal standard was a plasmid which contained a β-actin gene. Both plasmids were labeled using a random primer kit from Amersham to a specific activity of 5×10^9 cpm/μg. Prehybridization, hybridization and washing of the filters took place by standard processes. The filters were subsequently exposed on Cronex 4 films (Dupont) in the presence of an intensifying screen at -70° C. overnight or for up to 14 days, and the hybridization signals were quantified from the intensity of blackening of the film using a commercially available laser densitometer. Subsequently, the quotient of the intensity of the LDL receptor band and of the actin band was determined as internal standard to correct for variations in yield.
The HepG2 cells were incubated in RPMI 1640 standard medium with fetal calf serum (final concentration 10%). Serum-free RPMI medium was used as induction control. Subsequently, the complete mRNA was prepared and, by means of the Northern blot technique, the relevant LDL receptor mRNA and β-actin mRNA levels were determined. The quotient of the LDL receptor mRNA signal and of the β-actin mRNA signal of the control (without added substance) was set equal to 100%, and the stimulation above this of the LDL receptor mRNA levels achieved under the influence of the compounds was expressed as percentage of the control.

LDL receptor mRNA [3] = assay: Stimulation of LDL receptor mRNA expression in rat livers (Northern blot); type: in vivo; details: rat liver, 30 mg/kg, 6 hours after administration; untreated control = 100%
Description: 1b. The LDL receptor mRNA levels are also raised in rat livers by compounds of the formula I within a few hours (Table II).
as §1
Liver tissue was removed and shock-frozen in liquid nitrogen.
Subsequently, the mRNA was isolated as described and, by means of the Northern blot technique, the relative LDL receptor mRNA levels were determined. The mRNA level of untreated control animals was set equal to 100%, and the stimulation of the LDL receptor mRNA was calculated as a percentage of the […]

serum lipoproteins = assay: Effect on serum lipoproteins of normolipemic male rats in a subchronic experiment; type: in vivo; details: Rattus norvegicus, po, by stomach tube, 7 administrations; for change in vivo at 3 mg/kg: 3 mg/kg/day; for change in vivo at 10 mg/kg: 10 mg/kg/day; for change in vivo at 30 mg/kg: 30 mg/kg/day
Method in brief: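 Male HOE: WISKf rats (>180 g, 10/group) dosed orally by stomach tube once daily for 7 days in 1% aqueous Tylose; fasted 24 h and bled 24 h after last dose. Pooled serum ultracentrifuged into VLDL (d<1.006) and LDL (d 1.006–1.04); cholesterol and triglycerides measured enzymatically, protein by Lowry.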

[4] = read-out: Serum LDL cholesterol, % change from control at end of treatment
[5] = read-out: Serum LDL protein, % change from control at end of treatment
[6] = read-out: Serum VLDL cholesterol, % change from control at end of treatment
[7] = read-out: Serum VLDL protein, % change from control at end of treatment
[8] = read-out: Serum VLDL triglycerides, % change from control at end of treatment

SMILES | 1 part by mass dissolves in ... parts by H2O [1] [parts by H2 O] | solubility [1] [mg/mL] | activity at 2 µM (LDL receptor mRNA [2]) [%] | LDL receptor mRNA (LDL receptor mRNA [3]) [%] | change in vivo at 3 mg/kg (serum lipoproteins; [4]) [%] | change in vivo at 3 mg/kg (serum lipoproteins; [5]) [%] | change in vivo at 3 mg/kg (serum lipoproteins; [6]) [%] | change in vivo at 3 mg/kg (serum lipoproteins; [7]) [%] | change in vivo at 10 mg/kg (serum lipoproteins; [4]) [%] | change in vivo at 10 mg/kg (serum lipoproteins; [5]) [%] | change in vivo at 10 mg/kg (serum lipoproteins; [6]) [%] | change in vivo at 10 mg/kg (serum lipoproteins; [7]) [%] | change in vivo at 10 mg/kg (serum lipoproteins; [8]) [%] | change in vivo at 30 mg/kg (serum lipoproteins; [4]) [%] | change in vivo at 30 mg/kg (serum lipoproteins; [5]) [%] | change in vivo at 30 mg/kg (serum lipoproteins; [6]) [%] | change in vivo at 30 mg/kg (serum lipoproteins; [7]) [%] | change in vivo at 30 mg/kg (serum lipoproteins; [8]) [%] | change in vivo at 3 mg/kg (serum lipoproteins; [8]) [%]
C=CCN(C(=O)c1cnc(N2CC(C)(C)NC2=O)nc1N)c1cccc(C(F)(F)F)c1 [Example 40] | 12.1 | 76.6 | 180 | 340 | -22 | -18 | -19 | -11 | -53 | -38 | -40 | -41 | -2 | -58 | -52 | -57 | -52 | -41 | 
CC(C)N(C(=O)c1cnc(N2CC(C)(C)NC2=O)nc1N)c1cccc(C(F)(F)F)c1 [Example 4, 4-amino-2-(4,4-dimethyl-2-oxo-1-imidazolidinyl)pyrimidine-5-carboxylic acid N-isopropyl-N-(3-trifluoromethylphenyl)amide hydrochloride] |  |  | 205 | 221 |  |  |  |  | -39 | -33 | 2 | -18 |  | -68 | -53 | -70 | -13 | -29 | 
CC1(C)CN(c2ncc(C(=O)N(c3cccc(C(F)(F)F)c3)C3CCCC3)c(N)n2)C(=O)N1 [Example 42] |  |  | 180 | 312 | -34 | -22 | -23 | -11 | -29 | -9 | -23 | -10 | -29 | -48 | -29 | -70 | -40 | -61 | -29
CCCN(C(=O)c1cnc(N2CC(C)(C)NC2=O)nc1N)c1cccc(C(F)(F)F)c1 [Example 33] | 22.8 | 42 | 205 | 350 |  |  |  |  | -47 | -33 | 48 | -29 | -73 | -67 | 44 | -95 | -33 | -100 | 
